# Measurements reported in ChEMBL document CHEMBL1201862, “PubChem BioAssay data set” (2004).
#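 48-hour exposure; five concentrations; linearly interpolated endpoints. GI50: concentration for 50% inhibition of growth.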 Activity calls are given as the source filed them. Cut-off read from the data, not from the text of the source: active = GI50 up to about 1.1 µM and inactive = higher.
# Experiments:
# Assay in all cases: DTP human tumour cell line panel, 48 h
# KM-20L2 = test system: KM-20L2
# UACC-62 = test system: UACC-62
# NCI-H226 = test system: NCI-H226
# SK-MEL-28 = test system: SK-MEL-28
# RXF 393 = test system: RXF 393
# SN12C = test system: SN12C
# U-251 = test system: U-251
# DLD-1 = test system: DLD-1
# DMS-114 = test system: DMS-114
# HOP-62 = test system: HOP-62
# NCI-H23 = test system: NCI-H23
# CCRF-CEM = test system: CCRF-CEM
# HT-29 = test system: HT-29
# NCI-H522 = test system: NCI-H522
# XF498 = test system: XF498
# COLO 205 = test system: COLO 205
# HOP-18 = test system: HOP-18
# SNB-78 = test system: SNB-78
# HCT-116 = test system: HCT-116
# LOX IMVI = test system: LOX IMVI
# TK-10 = test system: TK-10
# UACC-257 = test system: UACC-257
# DMS-273 = test system: DMS-273
# SR = test system: SR
# 786-0 = test system: 786-0
# SNB-19 = test system: SNB-19
# LXFL 529 = test system: LXFL 529
# M19-MEL = test system: M19-MEL
# OVCAR-4 = test system: OVCAR-4
# KM12 = test system: KM12
# HCC 2998 = test system: HCC 2998
# OVCAR-8 = test system: OVCAR-8
# HOP-92 = test system: HOP-92
# SW-620 = test system: SW-620
# OVCAR-5 = test system: OVCAR-5
# SF-268 = test system: SF-268
# SK-MEL-5 = test system: SK-MEL-5
# SF-295 = test system: SF-295
# K562 = test system: K562
# CAKI-1 = test system: CAKI-1
# HCT-15 = test system: HCT-15
# MOLT-4 = test system: MOLT-4
# SK-MEL-2 = test system: SK-MEL-2
# OVCAR-3 = test system: OVCAR-3
# SK-OV-3 = test system: SK-OV-3
# Malme-3M = test system: Malme-3M
# NCI-H460 = test system: NCI-H460
# ACHN = test system: ACHN
# SNB-75 = test system: SNB-75
# HL-60 = test system: HL-60
# EKVX = test system: EKVX
# UO-31 = test system: UO-31
# M14 = test system: M14
# SF-539 = test system: SF-539
# A549 = test system: A549
# A498 = test system: A498
# IGROV-1 = test system: IGROV-1
compound,measurement,setting,value
C/C(=N\NC(N)=S)C(CN(CC(C)C)CC(C)C)C(=O)Nc1ccc(C)cc1C (configuration not stated),GI50,KM-20L2,> 100 µM (inactive)
same,GI50,UACC-62,> 100 µM (inactive)
same,GI50,NCI-H226,> 100 µM (inactive)
same,GI50,SK-MEL-28,> 100 µM (inactive)
same,GI50,RXF 393,> 100 µM (inactive)
same,GI50,SN12C,> 100 µM (inactive)
same,GI50,U-251,> 100 µM (inactive)
same,GI50,DLD-1,> 100 µM (inactive)
same,GI50,DMS-114,> 100 µM (inactive)
same,GI50,HOP-62,> 100 µM (inactive)
same,GI50,NCI-H23,> 100 µM (inactive)
same,GI50,CCRF-CEM,> 100 µM (inactive)
same,GI50,HT-29,> 100 µM (inactive)
same,GI50,NCI-H522,> 100 µM (inactive)
same,GI50,XF498,> 100 µM (inactive)
same,GI50,COLO 205,> 100 µM (inactive)
same,GI50,HOP-18,> 100 µM (inactive)
same,GI50,SNB-78,> 100 µM (inactive)
same,GI50,HCT-116,> 100 µM (inactive)
same,GI50,LOX IMVI,> 100 µM (inactive)
same,GI50,TK-10,> 100 µM (inactive)
same,GI50,UACC-257,> 100 µM (inactive)
same,GI50,DMS-273,> 100 µM (inactive)
same,GI50,SR,> 100 µM (inactive)
same,GI50,786-0,> 100 µM (inactive)
same,GI50,SNB-19,> 100 µM (inactive)
same,GI50,LXFL 529,> 100 µM (inactive)
same,GI50,M19-MEL,> 100 µM (inactive)
same,GI50,OVCAR-4,> 100 µM (inactive)
same,GI50,KM12,> 100 µM (inactive)
same,GI50,HCC 2998,> 100 µM (inactive)
same,GI50,OVCAR-8,> 100 µM (inactive)
same,GI50,HOP-92,> 100 µM (inactive)
same,GI50,SW-620,> 100 µM (inactive)
same,GI50,OVCAR-5,> 100 µM (inactive)
same,GI50,SF-268,> 100 µM (inactive)
same,GI50,SK-MEL-5,> 100 µM (inactive)
same,GI50,SF-295,> 100 µM (inactive)
same,GI50,K562,> 100 µM (inactive)
same,GI50,CAKI-1,> 100 µM (inactive)
same,GI50,HCT-15,> 100 µM
same,GI50,MOLT-4,> 100 µM (inactive)
same,GI50,SK-MEL-2,> 100 µM (inactive)
same,GI50,OVCAR-3,> 100 µM (inactive)
same,GI50,SK-OV-3,> 100 µM (inactive)
same,GI50,Malme-3M,> 100 µM (inactive)
same,GI50,NCI-H460,> 100 µM (inactive)
same,GI50,ACHN,> 100 µM (inactive)
same,GI50,SNB-75,90.6 µM (inactive)
same,GI50,HL-60,> 100 µM (inactive)
same,GI50,EKVX,54.6 µM (inactive)
same,GI50,UO-31,> 100 µM (inactive)
same,GI50,M14,> 100 µM (inactive)
same,GI50,SF-539,> 100 µM (inactive)
same,GI50,A549,> 100 µM (inactive)
same,GI50,A498,> 100 µM (inactive)
same,GI50,IGROV-1,> 100 µM (inactive)
